Assay results published in ChEMBL document CHEMBL5241054, “Effective anti-aromatase therapy to battle against estrogen-mediated breast cancer: Comparative SAR/QSAR assessment on steroidal aromatase inhibitors” (Eur J Med Chem, 2020).

Biological target: T1, Aromatase (Homo sapiens, UniProt P11511)
T1 sequence (P11511 whole entry): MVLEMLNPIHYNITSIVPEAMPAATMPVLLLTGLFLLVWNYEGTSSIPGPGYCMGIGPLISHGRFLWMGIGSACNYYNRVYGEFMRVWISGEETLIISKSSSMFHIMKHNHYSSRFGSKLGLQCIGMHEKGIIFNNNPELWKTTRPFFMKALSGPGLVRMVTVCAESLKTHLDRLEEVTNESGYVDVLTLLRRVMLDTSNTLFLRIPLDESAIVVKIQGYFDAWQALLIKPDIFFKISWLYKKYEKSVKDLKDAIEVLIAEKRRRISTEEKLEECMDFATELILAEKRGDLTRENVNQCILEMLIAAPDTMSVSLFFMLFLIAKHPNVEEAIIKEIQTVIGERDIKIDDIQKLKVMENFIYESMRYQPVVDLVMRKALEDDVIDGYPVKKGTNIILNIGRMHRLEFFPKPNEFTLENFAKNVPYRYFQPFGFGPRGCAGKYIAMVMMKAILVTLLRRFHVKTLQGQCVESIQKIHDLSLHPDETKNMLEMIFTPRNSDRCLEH

With `C[C@]12CC[C@H]3[C@@H](CCC4=CC(=O)CC[C@@]43CCF)[C@@H]1CCC2=O` the IC50 was 0.7 µM.
`C[C@]12CC[C@H]3[C@@H](CCC4=CC(=O)CC[C@@]43CO)[C@@H]1C[C@@H](O)[C@@H]2O` was tested, and the IC50 was 2400 µM.
For `C[C@]12CC[C@H]3[C@@H](C(=O)C=C4CCCC[C@@]43CO)[C@@H]1CCC2=O`, the IC50 was 3.3 µM.
`CCCC[C@H]1C[C@@H]2[C@H](CC[C@]3(C)C(=O)CC[C@@H]23)[C@@]2(C)C=CC(=O)C=C12` showed an IC50 of 0.2 µM.
`C[C@]12CCC(=O)C=C1C(=O)[C@@H](O)[C@@H]1[C@@H]2CC[C@]2(C)C(=O)CC[C@@H]12` showed an IC50 of 11 µM.
`CCC[C@H]1C[C@@H]2[C@H](CC[C@]3(C)C(=O)CC[C@@H]23)[C@@]2(C)CCC(=O)C=C12` was tested, and the IC50 was 0.39 µM.
`C[C@]12CCC(=O)C=C1CC[C@@H]1[C@@H]2CC[C@]2(C)C(=O)[C@H](O)C[C@@H]12` showed an IC50 of 200 µM.
Molecule `CCCC[C@H]1C[C@@H]2[C@H](CC[C@]3(C)[C@@H](O)CC[C@@H]23)c2ccc(O)cc21` has an IC50 of 28 µM.
`C[C@]12CC[C@H]3[C@@H](CCC4=C(O)C(=O)CC[C@@]43C(F)F)[C@@H]1CCC2=O` was tested, and the IC50 was 2.5 µM.
Work on `CCC[C@@H]1C[C@@]2(C)C(=CC1=O)CC[C@@H]1[C@@H]2CC[C@]2(C)C(=O)CC[C@@H]12` yielded an IC50 of 1.46 µM.
For `C[C@]12CCC(=O)C=C1[C@H](Cc1ccccc1)C[C@@H]1[C@@H]2CC[C@]2(C)C(=O)CC[C@@H]12`, the IC50 was 4 µM.
For `CCCCCCC1=C[C@@H]2[C@H](CC[C@]3(C)C(=O)CC[C@@H]23)[C@@]2(C)CCC(=O)C=C12`, the IC50 was 0.2 µM.
In the case of `C[C@]12CC[C@@H]3C4CCC(=O)C(F)=C4CC[C@H]3[C@@H]1CCC2=O` (some centres undefined), the IC50 is reported as 0.4 µM.
With `C[C@]12CCCC=C1CC[C@@H]1[C@@H]2CC[C@]2(C)C(=O)[C@H](O)C[C@@H]12` the IC50 was 4 µM.
`C[C@]12CC[C@H]3[C@@H](CC(=O)C4=CCCC[C@@]43CO)[C@@H]1CCC2=O` gave an IC50 of 5.79 µM.
Molecule `C[C@@H]1C[C@@H]2[C@H](CC[C@]3(C)C(=O)CC[C@@H]23)[C@@]2(C)CCC(=O)C=C12` has an IC50 of 0.719 µM.
In the case of `C[C@]12CC[C@@H]3c4cc(Cl)c(O)cc4CC[C@H]3[C@@H]1CCC2=O`, the IC50 is reported as 2.3 µM.
With `C[C@]12CC[C@H]3[C@@H](C(=O)C=C4C(=O)CCC[C@@]43C=O)[C@@H]1CCC2=O` the IC50 was 51.1 µM.
`C[C@]12CCC(=O)c3[nH]nc(c31)C[C@@H]1[C@@H]2CC[C@]2(C)C(=O)CC[C@@H]12` was tested, and the IC50 was 0.236 µM.
Molecule `C[C@]12CC[C@H]3[C@@H](CCC4=CC(=O)CC[C@@]43CO)[C@@H]1C[C@@H](O)C2=O` has an IC50 of 800 µM.
Work on `CCCCC[C@@H]1C[C@@]2(C)C(=CC1=O)CC[C@@H]1[C@@H]2CC[C@]2(C)C(=O)CC[C@@H]12` yielded an IC50 of 1.28 µM.
With `C[C@]12CC[C@@H]3c4cc(C=O)c(O)cc4CC[C@H]3[C@@H]1CCC2=O` the IC50 was 11 µM.
In the case of `C[C@]12CCCC=C1CC[C@@H]1[C@@H]2CC[C@]2(C)C(=O)[C@@H](Br)C[C@@H]12`, the IC50 is reported as 5.9 µM.
`C[C@]12CC[C@@H]3c4ccc(O)c(C=O)c4CC[C@H]3[C@@H]1CC[C@@H]2O` gave an IC50 of 28.3 µM.
For `C[C@]12CC[C@@H]3C4CCC=CC4=CC(=O)[C@H]3[C@@H]1CCC2=O` (some centres undefined), the IC50 was 33 µM.
For `CCC1=C[C@@]2(C)C(=CC1=O)CC[C@@H]1[C@@H]2CC[C@]2(C)C(=O)CC[C@@H]12`, the IC50 was 0.959 µM.
For `C[C@]12CC[C@H]3[C@@H](CCC4=CC(=O)CC[C@@]43CC(F)F)[C@@H]1CCC2=O`, the IC50 was 4 µM.
Molecule `C[C@]12CC[C@H]3[C@@H](C(=O)C=C4C(=O)CCC[C@@]43C)[C@@H]1CC[C@@H]2O` has an IC50 of 57 µM.
`C[C@]12CCC(=O)C=C1C1C([C@@H]3[C@@H]2CC[C@]2(C)C(=O)CC[C@@H]32)C1(F)F` (some centres undefined) gave an IC50 of 0.889 µM.
For `Cc1cc2c(cc1O)CC[C@@H]1[C@@H]2CC[C@]2(C)C(=O)CC[C@@H]12`, the IC50 was 4.3 µM.
For `C[C@]12CCC(=O)C=C1[C@H](OC(=O)CBr)C[C@@H]1[C@@H]2CC[C@]2(C)C(=O)CC[C@@H]12`, the IC50 was 45 µM.
Molecule `C[C@]12C=C(CCc3ccc(C(F)(F)F)cc3)C(=O)C=C1CC[C@@H]1[C@@H]2CC[C@]2(C)C(=O)CC[C@@H]12` has an IC50 of 34.1 µM.
With `COC1=C2CC[C@@H]3[C@H](CC[C@]4(C)C(=O)CC[C@@H]34)[C@@]2(C)CCC1=O` the IC50 was 7.19 µM.
In the case of `C[C@]12CC[C@H]3[C@@H](CCC4=CC(=O)CC[C@@]43C(F)F)[C@@H]1CC[C@@H]2O`, the IC50 is reported as 0.42 µM.
`C[C@]12CC[C@H]3[C@@H](CCC4=CC(=O)CC[C@@]43C)[C@@H]1CC[C@@H]2OC(=O)CBr` was tested, and the IC50 was 50 µM.
`C[C@]12CC[C@H]3[C@@H](CC(=O)C4=CCCC[C@@]43CO)[C@@H]1CC[C@@H]2O` was tested, and the IC50 was 25 µM.
`C#C[C@H](O)[C@]12CCCC=C1CC[C@@H]1[C@@H]2CC[C@]2(C)C(=O)CC[C@@H]12` showed an IC50 of 61.9 µM.
Work on `CC(=O)O[C@@H]1C[C@@H]2[C@H](CC[C@]3(C)C(=O)CC[C@@H]23)[C@@]2(C)CCCC=C12` yielded an IC50 of 0.12 µM.
With `CCCCCCC1=C[C@@H]2[C@H](CC[C@]3(C)C(=O)CC[C@@H]23)[C@@]2(C)C=CC(=O)C=C12` the IC50 was 0.155 µM.
With `C[C@]12CC[C@H]3[C@@H](CCC4=CC(=O)CC[C@@]43CF)[C@@H]1CCC2=O` the IC50 was 3 µM.
Work on `C[C@]12CC[C@H]3[C@@H](CC[C@]4(F)[C@@H](O)C(=O)CC[C@]34C)[C@@H]1CCC2=O` yielded an IC50 of 2.9 µM.
Molecule `C[C@]12CC[C@H]3[C@@H](CCC4=CC(=O)CC[C@@]43CO)[C@@H]1CCC2=O` has an IC50 of 13 µM.
`CC[C@H]1C[C@@H]2[C@H](CC[C@]3(C)C(=O)CC[C@@H]23)[C@@]2(C)C=CC(=O)C=C12` gave an IC50 of 0.25 µM.
`CCC[C@H]1C[C@@H]2[C@H](CC[C@]3(C)C(=O)CC[C@@H]23)[C@@]2(C)CCCC=C12` gave an IC50 of 0.23 µM.
`C[C@]12CC[C@@H]3c4cc(N)c(O)cc4CC[C@H]3[C@@H]1CCC2=O` showed an IC50 of 31 µM.
Work on `CCCCCC[C@@H]1C[C@@H]2[C@H](CC[C@]3(C)C(=O)CC[C@@H]23)[C@@]2(C)CCC(=O)C=C12` yielded an IC50 of 0.43 µM.
`CCCC[C@@H]1C[C@@]2(C)C(=CC1=O)CC[C@@H]1[C@@H]2CC[C@]2(C)C(=O)CC[C@@H]12` was tested, and the IC50 was 1.93 µM.
For `CC(=O)OC1=C2CC[C@@H]3[C@H](CC[C@]4(C)C(=O)CC[C@@H]34)[C@@]2(C)CCC1=O`, the IC50 was 1.5 µM.
With `CCC[C@]12CCC(=O)C=C1CC[C@@H]1[C@@H]2CC[C@]2(C)C(=O)CC[C@@H]12` the IC50 was 100 µM.
Molecule `CCC[C@@H]1C[C@@H]2[C@H](CC[C@]3(C)C(=O)CC[C@@H]23)[C@@]2(C)CCC(=O)C=C12` has an IC50 of 0.24 µM.
`CC(=O)O[C@@H]1CCC[C@@]2(CO)C1=CC[C@@H]1[C@@H]2CC[C@]2(C)C(=O)CC[C@@H]12` gave an IC50 of 11 µM.
`CC(=O)OC1[C@@H]2[C@H](CC[C@]3(C)C(=O)CC[C@@H]23)[C@@]2(C)CCC(=O)C=C2[C@@H]1N=[N+]=[N-]` (some centres undefined) gave an IC50 of 0.4 µM.
`CC[C@@H]1C[C@@H]2[C@H](CC[C@]3(C)C(=O)CC[C@@H]23)[C@@]2(C)C=CC(=O)C=C12` gave an IC50 of 0.054 µM.
With `C[C@]12CC[C@@H]3c4ccc(OC(=O)c5ccno5)cc4CC[C@H]3[C@@H]1CCC2=O` the IC50 was 244 µM.
Work on `Cc1ccc(CC[C@@H]2C[C@@]3(C)C(=CC2=O)CC[C@@H]2[C@@H]3CC[C@]3(C)C(=O)CC[C@@H]23)cc1` yielded an IC50 of 38.8 µM.
`C[C@]12CCC(=O)C=C1[C@H](CCCc1ccccc1)C[C@@H]1[C@@H]2CC[C@]2(C)C(=O)CC[C@@H]12` gave an IC50 of 290 µM.
For `C[C@]12CC[C@@H]3C4CCCCC4=CC(=O)[C@H]3[C@@H]1CCC2=O` (some centres undefined), the IC50 was 28 µM.
`C[C@]12CC[C@H]3[C@@H](C(=O)C=C4CCCC[C@@]43CO)[C@@H]1CCC2O` (some centres undefined) gave an IC50 of 43 µM.
For `CC(=O)OC1CC[C@H]2[C@@H]3CCC4=CCCC[C@]4(CO)[C@H]3CC[C@]12C` (some centres undefined), the IC50 was 100 µM.
`C[C@]12CC[C@H]3[C@@H](C=CC4=CC(=O)CC[C@@]43CBr)[C@@H]1CCC2=O` showed an IC50 of 1.4 µM.
In the case of `C[C@]12CCC=CC1=CC[C@@H]1[C@@H]2CC[C@]2(C)C(=O)CC[C@@H]12`, the IC50 is reported as 0.34 µM.
`C[C@]12C=C(CCCc3ccccc3)C(=O)C=C1CC[C@@H]1[C@@H]2CC[C@]2(C)C(=O)CC[C@@H]12` was tested, and the IC50 was 0.145 µM.
For `C[C@]12C=CC(=O)C=C1C[C@@H](CCc1cccc([N+](=O)[O-])c1)[C@@H]1[C@@H]2CC[C@]2(C)C(=O)CC[C@@H]12`, the IC50 was 0.133 µM.
`COc1cc2c(cc1O)CC[C@@H]1[C@@H]2CC[C@]2(C)C(=O)CC[C@@H]12` showed an IC50 of 17 µM.
`CC(=O)OC1=C2C=C[C@@H]3[C@H](CC[C@]4(C)C(=O)CC[C@@H]34)[C@@]2(C)CCC1=O` was tested, and the IC50 was 8 µM.
In the case of `C[C@]12CC[C@H]3[C@@H](CCC4=CC(=O)C=C[C@@]43CCl)[C@@H]1CCC2=O`, the IC50 is reported as 0.951 µM.
`C[C@]12C[C@@H](Cc3ccccc3)C(=O)C=C1CC[C@@H]1[C@@H]2CC[C@]2(C)C(=O)CC[C@@H]12` showed an IC50 of 466 µM.
`CCCCCCC[C@H]1C[C@@H]2[C@H](CC[C@]3(C)C(=O)CC[C@@H]23)[C@@]2(C)C=CC(=O)C=C12` was tested, and the IC50 was 0.25 µM.
`C=CC[C@]12CCC(=O)C=C1CC[C@@H]1[C@@H]2CC[C@]2(C)C(=O)CC[C@@H]12` was tested, and the IC50 was 1.8 µM.
